According to PMC6158167 (Nature Communications, 2018):

How the values were obtained:
ShHTL7 L124F/T190F/C194F = ShHTL7 L124F/T190F/C194F (Striga hermonthica, UniProt A0A0M3PNA2, C194F/L124F/T190F); assay: ITC binding to ShHTL7 triple mutation; conditions: 3 mM KAR1 into 150 μM mutant
Description: Supplementary Figure 8. Activity measurements of ShHTL7 mutants. (a-b), Binding analyses of the T190F/C194F double mutation (a) and L124F/T190F/C194F triple mutation (b) of ShHTL7 with KAR1 by ITC (shown in black). The ITC assays were performed by adding 3 mM KAR1 to 150 μM ShHTL7 mutants in the same manner as in Supplementary Figure 3. Results of titrating buffer to 150 μM ShHTL7 mutants are shown in red. The upper panel for each […]
injection (black squares). (c) YLG hydrolytic activity of ShHTL7 and its mutants. As described

[1] = tested on: ShHTL1–ShMAX2 interaction; assay: In vitro pull-down ShHTL1-ShMAX2; format: binding, Striga hermonthica; conditions: 50 μM ligand
Description: Ni-NTA pull-down assays were performed with purified ShMAX2 or AtMAX2 as the bait and […]14, or GST-AtD14 as the prey. The molecular weight of the HTL/D14 proteins is nearly the same as that of ASK1; therefore, the HTL/D14 proteins were fused to GST, increasing their molecular weight for detection on SDS-PAGE gels. […] The protein complexes were then eluted with 100 μL of elution buffer containing 50 mM Bis-Tris, pH 6.8, 500 mM NaCl, and 500 mM imidazole and subjected to SDS-PAGE analysis. Samples of […] […] also subjected to western blotting after separation by SDS-PAGE. The proteins were transferred from the SDS-PAGE gel to a polyvinylidene fluoride (PVDF) membrane (Merck Millipore). […] Next, the membrane was incubated with anti-GST antibody as the primary antibody (71097-3; Novagen; diluted 1:10,000) at 25 °C for 1.5 h and then washed 3 times with TBST buffer. Anti-mouse antibody (32430; Thermo Scientific; diluted 1:4000) conjugated to horseradish peroxidase was used as the secondary antibody. After incubation with the secondary antibody at 25 °C for 1.5 h, the membrane was washed 3 times. For detection, SuperSignal West Femto Maximum Sensitivity Substrate (Thermo Scientific) was used as the chemiluminescence substrate and ImageQuant LAS 4000 mini (GE Healthcare) was used for imaging.

ShD14 = assay: ITC binding to ShD14; design: species or system Striga hermonthica; conditions: 3 mM KAR1 into 150 μM protein
Description: The binding assays were performed using a MicroCal iTC200 isothermal titration calorimeter (GE Healthcare). Prior to the ITC experiments, concentrated ShD14, ShHTL1, ShHTL4, and ShHTL7 were exchanged into a buffer consisting of 20 mM HEPES (pH 8.0) and 150 mM NaCl to remove dithiothreitol and were then adjusted to a final concentration of 150 μM. The sample cell was filled with protein solution (204 μL). Nineteen consecutive 2.0-μL aliquots of 3 mM KAR1 (3-methyl-2H-furo [2,3-c] pyran-2-one) were injected into a prepared protein solution at 150 s intervals at 20 °C. The first injection volume was 0.4 μL, and the observed thermal peak was excluded from the data analysis. A negative control was obtained by titrating 3 mM KAR1 into the buffer (20 mM HEPES, pH 8.0, 150 mM NaCl) in the same manner. Data fitting was performed in “one set of sites” mode, and KD values were calculated using Origin software provided by MicroCal.
Supplementary Figure 3. Binding analyses of ShHTLs and ShD14 with KAR1. The ITC
assays were performed by adding 3 mM KAR1 to 150 μM ShHTL1 (a), ShHTL4 (b), ShHTL7
(c), ShD14 (d) and AtHTL (e).
ShHTL1 and AtHTL were fitted using the MicroCal origin software with the “one binding site”
model. The ITC assays titrating KAR1 into ShHTL1 and AtHTL were repeated three times
independently (data not shown).

[2] = tested on: ShHTL3–ShMAX2 interaction; assay: Y2H assay ShHTL3-ShMAX2; format: cell-based, Striga hermonthica; conditions: 5 μM ligand
From the text: Full-length sequences of ShD14, ShHTL1, ShHTL3, ShHTL4, ShHTL7, and AtHTL were cloned into the pGBKT7 vector as bait (Clontech), and the coding regions of ShMAX2 and AtMAX2 were cloned into the pGADT7 vector as prey (Clontech). MAX2 was supposed to be unstable without ASK1. Therefore, AtASK1 was cloned into the N terminus of ShMAX2 and AtMAX2 with a 16-residue linker for co-expression. The bait and prey plasmids were co-transformed into the yeast (Saccharomyces cerevisiae) strain Y2HGold (Clontech) by the lithium acetate-mediated method. The presence of both plasmids was confirmed by growth on SD/-Leu/-Trp (-LT) plates. […] The plates were incubated for 5 days at 30 °C.

ShHTL7 L124F/T190F/C194F, sequence (A0A0M3PNA2 whole entry L124F/T190F/C194F): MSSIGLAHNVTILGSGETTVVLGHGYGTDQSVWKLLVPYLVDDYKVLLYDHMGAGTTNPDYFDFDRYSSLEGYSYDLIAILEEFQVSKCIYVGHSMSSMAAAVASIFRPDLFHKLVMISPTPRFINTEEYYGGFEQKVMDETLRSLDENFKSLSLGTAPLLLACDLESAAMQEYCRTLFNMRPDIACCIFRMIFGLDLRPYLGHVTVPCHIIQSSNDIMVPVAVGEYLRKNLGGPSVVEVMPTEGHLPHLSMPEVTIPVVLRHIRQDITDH

Question: `Cc1c2ccocc-2oc1=O` [KAR1, 3-methyl-2H-furo [2,3-c] pyran-2-one] was tested. Which “KAR1 binding by ShHTL7 L124F/T190F/C194F” value (ShHTL7 L124F/T190F/C194F) did it give?
Answer: able to bind to KAR1 weakly

Question: What about the “ShHTL1-ShMAX2 interaction in the presence of ligand” value [1] of the same molecule?
Answer: no direct interaction with ShMAX2 in the presence of KAR1

Question: And the “KAR1 binding ability of ShD14” value (ShD14)?
Answer: no significant KAR1 binding ability

Question: And the “ligand-induced ShHTL3-ShMAX2 interaction” value [2]?
Answer: failed to interact with ShMAX2 in the presence of KAR1
